US11091478B2 (Fochon Pharmaceuticals, Ltd., priority 2017, dated 2021)
Read-outs that look alike come from different tables or passages of the source. Blank lines part the entries; values can stand above or below the compound they belong to.

Tests used:
DOHH2 cells = assay: Cell proliferation assay (MTS), DOHH2 cells, 120 h; type: cell-based
Procedure, shortened: (§1)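 RS4;11 and DOHH2 cells at 5000 cells/well in RPMI-1640 with 10% FBS were treated with compound at 1.5–10000 nM final, nine points, at 37 °C, 5% CO2. Exposure was 72 h for RS4;11 and 120 h for DOHH2. MTS was added for 2 h, absorbance read at 490/650 nm, and IC50 calculated.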

RS4;11 cells = assay: Cell proliferation assay (MTS), RS4;11 cells, 72 h; type: cell-based
Procedure, shortened: as §1

Compound: CC1(C)CCC(CN2CCN(c3ccc(C(=O)NS(=O)(=O)c4cc5c(c([N+](=O)[O-])c4)N[C@H](CC4CCC(O)CC4)CO5)c(Oc4cnc5[nH]ccc5c4)c3)CC2)=C(c2ccc(Cl)cc2)C1 (single isomer, unassigned) [Example 2-239A]
IC50 (DOHH2 cells): 0.005 µM | IC50 (RS4;11 cells; Homo sapiens, RS4-11, 72 h): 0.001 µM

Compound: C[C@@H]1CN(C[C@@H]2COc3cc(S(=O)(=O)NC(=O)c4ccc(N5CCN(CC6=C(c7ccc(Cl)cc7)CC(C)(C)CC6)CC5)cc4Oc4cnc5[nH]ccc5c4)cc([N+](=O)[O-])c3N2)CCO1 [Example 2-23, 2-((1H-pyrrolo[2,3-b]pyridin-5-yl)oxy)-4-(4-((4′-chloro-5,5-dimethyl-3,4,5,6-tetra-hydro-[1,1′-biphenyl]-2-yl)methyl)piperazin-1-yl)-N-(((R)-3-(((R)-2-methylmorpholino)methyl)-5-nitro-3,4-dihydro-2H-benzo[b][1,4]oxazin-7-yl)sulfonyl)benzamide]
IC50 (DOHH2 cells; Homo sapiens, DOHH-2, 120 h): 0.033 µM | IC50 (RS4;11 cells; Homo sapiens, RS4-11, 72 h): 0.007 µM

Compound: CC1(C)CCC(CN2CCN(c3ccc(C(=O)NS(=O)(=O)c4cc5c(c([N+](=O)[O-])c4)N[C@H](CCN4CCOCC4)CO5)c(Oc4cnc5[nH]ccc5c4)c3)CC2)=C(c2ccc(Cl)cc2)C1 [Example 2-2]
IC50 (DOHH2 cells; Homo sapiens, DOHH-2, 120 h): 0.008 µM | IC50 (RS4;11 cells; Homo sapiens, RS4-11, 72 h): 0.002 µM

Compound: CC1(C)CCC(CN2CCN(c3ccc(C(=O)NS(=O)(=O)c4cc5c(c([N+](=O)[O-])c4)N[C@H](CN4CCOCC4)CO5)c(Oc4cnc5[nH]ccc5c4)c3)CC2)=C(c2ccc(Cl)cc2)C1 [Example 2-5, (R)-2-((1H-pyrrolo[2,3-b]pyridin-5-yl)oxy)-4-(4-((4′-chloro-5,5-dimethyl-3,4,5,6-tetra-hydro-[1,1′-biphenyl]-2-yl)methyl)piperazin-1-yl)-N-((3-(morpholinomethyl)-5-nitro-3,4-dihydro-2H-benzo[b][1,4]oxazin-7-yl)sulfonyl)benzamide]
IC50 (DOHH2 cells; Homo sapiens, DOHH-2, 120 h): 0.012 µM | IC50 (RS4;11 cells; Homo sapiens, RS4-11, 72 h): 0.003 µM

Compound: CC1(C)CCC(CN2CCN(c3ccc(C(=O)NS(=O)(=O)c4cc5c(c([N+](=O)[O-])c4)N[C@H](CC(=O)N4CCOCC4)CO5)c(Oc4cnc5[nH]ccc5c4)c3)CC2)=C(c2ccc(Cl)cc2)C1 [Example 2-143, (R)-2-((1H-pyrrolo[2,3-b]pyridin-5-yl)oxy)-4-(4-((4′-chloro-5,5-dimethyl-3,4,5,6-tetra-hydro-[1,1′-biphenyl]-2-yl)methyl)piperazin-1-yl)-N-((3-(2-morpholino-2-oxoethyl)-5-nitro-3,4-dihydro-2H-benzo[b][1,4]oxazin-7-yl)sulfonyl)benzamide]
IC50 (DOHH2 cells; Homo sapiens, DOHH-2, 120 h): 0.035 µM | IC50 (RS4;11 cells; Homo sapiens, RS4-11, 72 h): 0.035 µM

Compound: CC1(C)CCC(CN2CCN(c3ccc(C(=O)NS(=O)(=O)c4cc5c(c([N+](=O)[O-])c4)N[C@@H](Cc4ccc(S(C)(=O)=O)cn4)CO5)c(Oc4cnc5[nH]ccc5c4)c3)CC2)=C(c2ccc(Cl)cc2)C1 [Example 2-192, (S)-2-((1H-pyrrolo[2,3-b]pyridin-5-yl)oxy)-4-(4-((4′-chloro-5,5-dimethyl-3,4,5,6-tetra-hydro-[1,1′-biphenyl]-2-yl)methyl)piperazin-1-yl)-N-((3-((5-(methylsulfonyl)pyridin-2-yl)methyl)-5-nitro-3,4-dihydro-2H-benzo [b][1,4]oxazin-7-yl)sulfonyl)benzamide]
IC50 (DOHH2 cells; Homo sapiens, DOHH-2, 120 h): 0.143 µM | IC50 (RS4;11 cells; Homo sapiens, RS4-11, 72 h): 0.005 µM

Compound: COC1CCC([C@@H]2COc3cc(S(=O)(=O)NC(=O)c4ccc(N5CCN(CC6=C(c7ccc(Cl)cc7)CC(C)(C)CC6)CC5)cc4Oc4cnc5[nH]ccc5c4)cc([N+](=O)[O-])c3N2)CC1 (stereo partly drawn) [Example 2-248B, (R)-2-((1H-pyrrolo[2,3-b]pyridin-5-yl)oxy)-4-(4-((4′-chloro-5,5-dimethyl-3,4,5,6-tetra-hydro-[1,1′-biphenyl]-2-yl)methyl)piperazin-1-yl)-N-((3-(4-methoxycyclohexyl)-5-nitro-3,4-dihydro-2H-benzo[b][1,4]oxazin-7-yl)sulfonyl)benzamide]
IC50 (DOHH2 cells): 0.014 µM | IC50 (RS4;11 cells): 0.064 µM

Compound: CN1CCN(CC[C@H]2COc3cc(S(=O)(=O)NC(=O)c4ccc(N5CCN(CC6=C(c7ccc(Cl)cc7)CC(C)(C)CC6)CC5)cc4Oc4cnc5[nH]ccc5c4)cc([N+](=O)[O-])c3N2)CC1 [Example 2-9, (S)-2-((1H-pyrrolo[2,3-b]pyridin-5-yl)oxy)-4-(4-((4′-chloro-5,5-dimethyl-3,4,5,6-tetra-hydro-[1,1′-biphenyl]-2-yl)methyl)piperazin-1-yl)-N-((3-(2-(4-methylpiperazin-1-yl)eth-yl)-5-nitro-3,4-dihydro-2H-benzo[b][1,4]oxazin-7-yl)sulfonyl)benzamide]
IC50 (DOHH2 cells; Homo sapiens, DOHH-2, 120 h): 0.033 µM | IC50 (RS4;11 cells; Homo sapiens, RS4-11, 72 h): 0.01 µM

Compound: CC1(C)CCC(CN2CCN(c3ccc(C(=O)NS(=O)(=O)c4cc5c(c([N+](=O)[O-])c4)N[C@H](CC#N)CO5)c(Oc4cnc5[nH]ccc5c4)c3)CC2)=C(c2ccc(Cl)cc2)C1 [Example 2-144, (R)-2-((1H-pyrrolo[2,3-b]pyridin-5-yl)oxy)-4-(4-((4′-chloro-5,5-dimethyl-3,4,5,6-tetra-hydro-[1,1′-biphenyl]-2-yl)methyl)piperazin-1-yl)-N-((3-(cyanomethyl)-5-nitro-3,4-di-hydro-2H-benzo[b][1,4]oxazin-7-yl)sulfo-nyl)benzamide]
IC50 (DOHH2 cells; Homo sapiens, DOHH-2, 120 h): 0.014 µM | IC50 (RS4;11 cells; Homo sapiens, RS4-11, 72 h): 0.003 µM

Now from value to compound, other results behind:

IC50 (RS4;11 cells; Homo sapiens, RS4-11, 72 h): 0.02 µM
Compound: CN(C)C(=O)C[C@@H]1Cc2cc(S(=O)(=O)NC(=O)c3ccc(N4CCN(CC5=C(c6ccc(Cl)cc6)CC(C)(C)CC5)CC4)cc3Oc3cnc4[nH]ccc4c3)cc([N+](=O)[O-])c2N1 [Example 1-23, (S)-2-((1H-pyrrolo[2,3-b]pyridin-5-yl)oxy)-4-(4-((4′-chloro-5,5-dimethyl-3,4,5,6-tetra-hydro-[1,1′-biphenyl]-2-yl)methyl)piperazin-1-yl)-N-((2-(2-(dimethylamino)-2-oxoeth-yl)-7-nitroindolin-5-yl)sulfonyl)benzamide]
IC50 (DOHH2 cells; Homo sapiens, DOHH-2, 120 h): 0.057 µM

IC50 (RS4;11 cells; Homo sapiens, RS4-11, 72 h): 0.004 µM
Compound: CN(C)CC[C@@H]1COc2cc(S(=O)(=O)NC(=O)c3ccc(N4CCN(CC5=C(c6ccc(Cl)cc6)CC(C)(C)CC5)CC4)cc3Oc3cnc4[nH]ccc4c3)cc([N+](=O)[O-])c2N1 [Example 2-16, (R)-2-((1H-pyrrolo[2,3-b]pyridin-5-yl)oxy)-4-(4-((4′-chloro-5,5-dimethyl-3,4,5,6-tetra-hydro-[1,1′-biphenyl]-2-yl)methyl)piperazin-1-yl)-N-((3-(2-(dimethylamino)ethyl)-5-nitro-3,4-dihydro-2H-benzo[b][1,4]oxazin-7-yl)sulfonyl)benzamide]
IC50 (DOHH2 cells; Homo sapiens, DOHH-2, 120 h): 0.034 µM

IC50 (RS4;11 cells; Homo sapiens, RS4-11, 72 h): 0.073 µM
Compound: CC1(C)CCC(CN2CCN(c3ccc(C(=O)NS(=O)(=O)c4cc5c(c([N+](=O)[O-])c4)N[C@H](CC(=O)N4CCOCC4)C5)c(Oc4cnc5[nH]ccc5c4)c3)CC2)=C(c2ccc(Cl)cc2)C1 [Example 1-24, (S)-2-((1H-pyrrolo[2,3-b]pyridin-5-yl)oxy)-4-(4-((4′-chloro-5,5-dimethyl-3,4,5,6-tetra-hydro-[1,1′-biphenyl]-2-yl)methyl)piperazin-1-yl)-N-((2-(2-morpholino-2-oxoethyl)-7-nitroindolin-5-yl)sulfonyl)benzamide]
IC50 (DOHH2 cells; Homo sapiens, DOHH-2, 120 h): 0.041 µM

IC50 (RS4;11 cells; Homo sapiens, RS4-11, 72 h): 0.008 µM
Compound: CC1(C)CCC(CN2CCN(c3ccc(C(=O)NS(=O)(=O)c4cc5c(c([N+](=O)[O-])c4)N[C@H](CO)CS5)c(Oc4cnc5[nH]ccc5c4)c3)CC2)=C(c2ccc(Cl)cc2)C1 [Example 3-5, (R)-2-((1H-pyrrolo[2,3-b]pyridin-5-yl)oxy)-4-(4-((4′-chloro-5,5-dimethyl-3,4,5,6-tetra-hydro-[1,1′-biphenyl]-2-yl)methyl)piperazin-1-yl)-N-((3-(hydroxymethyl)-5-nitro-3,4-dihydro-2H-benzo[b][1,4]thiazin-7-yl)sulfonyl) benzamide]
IC50 (DOHH2 cells; Homo sapiens, DOHH-2, 120 h): 0.012 µM
